According to ChEMBL document CHEMBL1125974, “Synthesis of (+/)1-Aza-carbocyclic-pyrimidine-2,3-dideoxynucleoside analogues as potential anti-HIV agents” (Bioorg Med Chem Lett, 1991):

Test system: MT4
Experiment: Tested for inhibitory activity against HIV in whole cell assay (MT-4, RF strain of HIV-1) at a 100 ug/ ml); Inactive and Not toxic
Assay type: functional, cell-based
Settings: Homo sapiens

Compound	Activity
O=c1ccn(N2CCC(CO)C2)c(=O)[nH]1 (stereo not drawn)	Non-toxic
Cc1cn(N2CCC(CO)C2)c(=O)[nH]c1=O (stereo not drawn)	Non-toxic
Nc1ccn(N2CCC(CO)C2)c(=O)n1 (stereo not drawn)	Non-toxic
